{"source": "paper PMC6848974", "about": "(Science translational medicine, 2019)", "system": "A/WSN/33-nanoLuc or Ca/09", "type": "cell-based, influenza A virus", "data": [{"smiles": "O=c1nc(NO)ccn1[C@@H]1O[C@H](CO)[C@@H](O)[C@H]1O", "note": "[NHC, N^4-hydroxycytidine]", "values": [{"measurement": "drug concentration resulting in virus extinction", "result": "≥ 4", "unit": "µM"}, {"measurement": "repeat exposure of NHC-experienced virus populations", "result": "again rapidly sterilizing"}]}]}
